How the values were obtained:
FLT3-ITD = biological target: T1, FLT3-ITD (Homo sapiens, UniProt P36888); test: AlphaScreen kinase assay with recombinant enzyme, FLT3-ITD; type: biochemical; conditions: 8pt; read-out: FLT3_ITD 8pt: IC50
T1 sequence (P36888 1-993): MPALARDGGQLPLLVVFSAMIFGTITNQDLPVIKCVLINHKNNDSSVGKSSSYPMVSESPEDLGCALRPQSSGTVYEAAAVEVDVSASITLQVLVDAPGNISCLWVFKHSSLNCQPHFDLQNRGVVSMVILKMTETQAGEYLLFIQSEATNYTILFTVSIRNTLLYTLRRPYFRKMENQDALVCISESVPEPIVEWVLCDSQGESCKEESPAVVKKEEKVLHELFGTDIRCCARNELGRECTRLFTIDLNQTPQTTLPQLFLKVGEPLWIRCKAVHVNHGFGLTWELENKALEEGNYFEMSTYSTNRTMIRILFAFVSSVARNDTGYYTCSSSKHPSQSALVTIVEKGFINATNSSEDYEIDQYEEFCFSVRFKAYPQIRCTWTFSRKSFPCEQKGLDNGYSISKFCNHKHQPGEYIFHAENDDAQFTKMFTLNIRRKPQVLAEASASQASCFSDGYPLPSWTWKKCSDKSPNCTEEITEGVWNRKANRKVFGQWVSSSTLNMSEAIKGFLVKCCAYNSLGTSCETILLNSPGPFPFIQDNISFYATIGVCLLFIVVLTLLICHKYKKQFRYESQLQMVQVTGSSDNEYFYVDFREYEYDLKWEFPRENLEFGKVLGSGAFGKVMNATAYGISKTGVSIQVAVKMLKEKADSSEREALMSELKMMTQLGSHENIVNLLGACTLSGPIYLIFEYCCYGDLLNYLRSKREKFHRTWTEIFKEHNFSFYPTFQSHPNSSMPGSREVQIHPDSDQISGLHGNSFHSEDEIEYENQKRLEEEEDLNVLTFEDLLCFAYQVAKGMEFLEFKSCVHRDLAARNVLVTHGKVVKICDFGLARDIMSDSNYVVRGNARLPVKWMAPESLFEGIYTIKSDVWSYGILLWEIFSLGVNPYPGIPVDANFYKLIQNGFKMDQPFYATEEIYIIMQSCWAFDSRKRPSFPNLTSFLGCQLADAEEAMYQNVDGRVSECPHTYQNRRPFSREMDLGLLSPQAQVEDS
Method: In order to determine the effect of compounds on FLT3 catalytic activity, kinase assays using recombinant enzymes and AlphaScreen® technology have been established. The catalytic activity of c-kit activity was also measured to determine selectivity of the compounds. When the kinases are catalytically active, they phosphorylate a biotinylated peptide substrate on tyrosine residues. Using AlphaScreen® technology, the ability of the compounds to affect the catalytic activity of the kinases can be measured quantitatively. The peptide substrate is immobilized by the AlphaScreen® Streptavidin Donor beads and, upon phosphorylation by a tyrosine kinase, can bind to AlphaScreen® Anti-Phosphotyrosine (PY20) Acceptor beads. Upon excitation of these beads with laser light at 680 nm, singlet oxygen is produced. This singlet oxygen is rapidly quenched, unless the AlphaScreen® Anti-Phosphotyrosine (PY20) Acceptor beads are in close proximity, in which case a proximity signal can be measured at 580 nm. In the presence of catalytic activity, there is a very strong proximity signal. Selective kinase inhibitors affect a decrease in this proximity signal through a decrease in tyrosine phosphorylation of the peptide substrate.
The assay was performed as summarized below.
Poly (Glu4-Tyr) Peptide, biotin conjugate [Biotin-GG(EEEEY)10EE] (SEQ ID NO: 4)
Final concentration=30 nM
Final concentration for IC50 determination=10 μM (FLT3-D835Y or FLT3-ITD) or 100 μM (c-KIT)
AlphaScreen® Phosphotyrosine (PY20) Assay Kit
Final concentration=10 μg/mL
Dilute compounds in DMSO to 20× final concentration.
Add 1 μl of compound to each well of 384 well reaction plate (Perkin Elmer #6005359).
Mix enzyme and Poly (Glu4-Tyr) Peptide substrate at 1.33× final concentration in assay buffer.
Mix ATP at 5× final concentration in assay buffer.
Add 15 μL enzyme/substrate mixture to the reaction plate.
Add 4 μL of ATP to the reaction plate.
Mix Streptavidin Donor beads at 6× final concentration in Stop/Detection buffer.
Add 5 μL Streptavidin Donor beads to the reaction plate. Centrifuge 1 minute, shake to mix, and incubate at room temperature for 20 minutes.
Mix Anti-Phosphotyrosine (PY20) Acceptor beads at 6× final concentration in Stop/Detection buffer.
Add 5 μL Anti-Phosphotyrosine (PY20) beads to the reaction plate.
Centrifuge 1 minute, shake to mix, and incubate at room temperature for 60 minutes.
Read plate on Wallac EnVision™ 2103 Multilabel Reader.

[1] = tested on: MOLM-14 F691L cells, FLT3 ITD and FLT3 F691L; test: Cell proliferation assay (CellTiter-Glo), MOLM-14 F691L; type: cell-based; conditions: Homo sapiens, 72 h, 3d-Growth, GMean
Description: The FLT3 inhibitors may be assessed using the MOLM-14, Acute Myeloid Leukemia cell line that endogenously expresses FLT3 ITD or derivatives of the human FLT3 AML cell line which acquired the D835Y (activation loop) of F691L (gatekeeper) mutation after selection in escalating doses of the FLT3 Inhibitor AC220. FLT3 inhibitors may also be assessed using cells that are engineered to express mutant FLT3. For engineered cells, murine Ba/F3 cells were transfected with full-length FLT3 ITD/D835Y mutations. The parental BA/F3 cells are dependent upon Interleukin-3 (IL-3) for survival, and introduction of the FLT3 constructs rendered these cells dependent upon FLT3 kinase activity when cultured in the absences of IL-3. Engineered BA/F3 cell growth assays can be performed in either the […] of IL-3, to assess the compound inhibition of FLT3 or to detect the presence of off-target activity, respectively. Inhibitors of FLT3 kinase activity reduce or eliminate the FLT3 oncogenic signaling, resulting in reduced cell proliferation. This inhibition is measured as a function of compound concentration to asses IC50 values.
Cell lines used in proliferation assays are as follows in Table 3:
Cells were seeded at 1×10^4 cells per well of a 96 well cell culture plate in 50 μl of cell culture medium. Compounds were dissolved in DMSO, typically at a concentration of 0.5 mM and were serially diluted 1:3 for a total of eight points and added to the cells to final concentrations of […], 0.0041, 0.0014 and 0.00046 μM in 100 μl cell culture medium (final concentration 0.2% DMSO). […] The cells were incubated at 37° C., 5% CO2 for three days. CellTiter-Glo Buffer (Promega Cell Viability Assay catalog #G7573) and substrate were equilibrated to room temperature, and enzyme/substrate Recombinant Firefly Luciferase/Beetle Luciferin was reconstituted. The cell plates were equilibrated to room temperature for 30 minutes, then lysed by addition of an equivalent volume of the Celltiter-Glo Reagent. The plate was mixed for 10 minutes on a plate shaker to lyse the cells. The plates were read on a Tecan M1000 using Luminescence protocol modified to read 0.1 s per well. The luminescence reading assesses the ATP content, which correlates directly with cell number such that the reading as a function of compound concentration was used to determine the IC50 value.

Row | IC50 (FLT3-ITD) | IC50 [1] | SMILES
1 | 0.0001 to 10 µM | 0.0001 to 10 µM | CN[C@@H]1CCN(C(=O)c2ccc(-c3cnc4[nH]c(-c5ccccc5)cc4c3)s2)C1 [Compound P-0106, [(3R)-3-(methylamino)pyrrolidin-1-yl]-[5-(2-phenyl-1H-pyrrolo[2,3-b]pyridin-5-yl)-2-thienyl]methanone]
2 | 0.0001 to 10 µM | 0.0001 to 10 µM | N#CC1(NC(=O)c2cccc(-c3cnc4[nH]c(-c5ccccc5)cc4c3)n2)CC1 [Compound P-0111, N-(1-cyanocyclopropyl)-6-(2-phenyl-1H-pyrrolo[2.3-b]pyridin-5-yl]pyridine-2-carboxamide]
3 | 0.0001 to 10 µM | 0.0001 to 10 µM | CC(C)(C#N)CNC(=O)c1cccc(-c2cnc3[nH]c(-c4cnn(CC(F)(F)F)c4)cc3c2)n1 [Compound P-0113, N-(2-cyano-2-methyl-propyl)-6-[2-[1-(2,2,2-trifluoroethyl)pyrazol-4-yl]-1H-pyrrolo[2,3-b]pyridin-5-yl]pyridine-2-carboxamide]
4 | 0.0001 to 10 µM | 0.0001 to 10 µM | N#CC1(NC(=O)c2cccc(-c3cnc4[nH]c(-c5ccccc5)cc4c3)n2)CCC1 [Compound P-0114, N-(1-cyanocyclobutyl)-6-(2-phenyl-1H-pyrrolo[2,3-b]pyridin-5-yl)pyridine-2-carboxamide]
5 | 0.0001 to 10 µM | 0.0001 to 10 µM | CC(C)(C#N)NC(=O)c1cccc(-c2cnc3[nH]c(-c4ccccc4)cc3c2)n1 [Compound P-0118, N-(1-cyano-1-methyl-ethyl)-6-(2-phenyl-1H-pyrrolo[2,3-b]pyridin-5-yl)pyridine-2-carboxamide]
6 | 0.0001 to 10 µM | 0.0001 to 10 µM | N#C[C@@H]1CCN(C(=O)c2cccc(-c3cnc4[nH]c(-c5ccccc5)cc4c3)n2)C1 [Compound P-0122, (3R)-1-[6-(2-phenyl-1H-pyrrolo[2,3-b]pyridin-5-yl)pyridine-2-carbonyl]pyrrolidine-3-carbonitrile]
7 | 0.0001 to 10 µM | – | Cc1cc(-c2cc3cc(-c4cccc(C(=O)NC(C)(C)C#N)n4)cnc3[nH]2)cnn1 [Compound P-0163, N-(1-cyano-1-methyl-ethyl)-6-[2-(6-methylpyridazin-4-yl)-1H-pyrrolo[2,3-b]pyridin-5-yl]pyridine-2-carboxamide]
8 | 0.0001 to 10 µM | – | C#Cc1cc2cc(-c3cccc(C(=O)NC(C)(C)C#N)n3)cnc2[nH]1 [Compound P-0175, N-(1-cyano-1-methyl-ethyl)-6-(2-ethynyl-1H-pyrrolo[2,3-b]pyridin-5-yl)pyridine-2-carboxamide]
9 | 0.0001 to 10 µM | – | CC(C)(C#N)NC(=O)c1cccc(-c2cnc3[nH]c(-c4ccc(C5CC5)cc4)cc3c2)n1 [Compound P-0189, N-(1-cyano-1-methyl-ethyl)-6-[2-(4-cyclopropylphenyl)-1H-pyrrolo[2,3-b]pyridin-5-yl]pyridine-2-carboxamide]

The next lines start with the molecule.

Row | SMILES | IC50 (FLT3-ITD) | IC50 [1]
10 | O=S(=O)(NC1CC1)c1cccc(-c2cnc3[nH]c(-c4ccccc4)cc3c2)n1 [Compound P-0109, N-cyclopropyl-6-(2-phenyl-1H-pyrrolo[2,3-b]pyridin-5-yl)pyridine-2-sulfonamide] | 0.0001 to 10 µM | 0.0001 to 10 µM
11 | O=C(c1cccc(-c2cnc3[nH]c(-c4cnn(CC(F)(F)F)c4)cc3c2)n1)N1CCC(F)(F)C1 [Compound P-0112, (3,3-difluoropyrrolidin-1-yl)-[6-[2-[1-(2,2,2-trifluoroethyl)pyrazol-4-yl]-1H-pyrrolo[2,3-b]pyridin-5-yl]-2-pyridyl]methanone] | 0.0001 to 10 µM | 0.0001 to 10 µM
12 | N#CC1(F)CCN(C(=O)c2cccc(-c3cnc4[nH]c(-c5ccccc5)cc4c3)n2)C1 (centres unmarked) [Compound P-0115, 3-fluoro-1-[6-(2-phenyl-1H-pyrrolo[2,3-b]pyridin-5-yl)pyridine-2-carbonyl]pyrrolidine-3-carbonitrile] | 0.0001 to 10 µM | 0.0001 to 10 µM
13 | COc1cc(-c2cc3cc(-c4cccc(C(=O)NCC(C)(C)C#N)n4)cnc3[nH]2)ccn1 [Compound P-0154, N-(2-cyano-2-methyl-propyl)-6-[2-(2-methoxy-4-pyridyl)-1H-pyrrolo[2,3-b]pyridin-5-yl]pyridine-2-carboxamide] | 0.0001 to 10 µM | –
14 | Cn1cc(-c2cc3cc(-c4cccc(C(=O)NCC(C)(C)C#N)n4)cnc3[nH]2)ccc1=O [Compound P-0155, N-(2-cyano-2-methyl-propyl)-6-[2-(1-methyl-6-oxo-3-pyridyl)-1H-pyrrolo[2,3-b]pyridin-5-yl]pyridine-2-carboxamide] | 0.0001 to 10 µM | –
15 | CC(C)(C#N)CNC(=O)c1cccc(-c2cnc3[nH]c(C4=CCSCC4)cc3c2)n1 [Compound P-0159, N-(2-cyano-2-methyl-propyl)-6-[2-(3,6-dihydro-2H-thiopyran-4-yl)-1H-pyrrolo[2,3-b]pyridin-5-yl]pyridine-2-carboxamide] | 0.0001 to 10 µM | –
16 | Cn1cncc1C#Cc1cc2cc(-c3cccc(C(=O)NC(C)(C)C#N)n3)cnc2[nH]1 [Compound P-0177, N-(1-cyano-1-methyl-ethyl)-6-[2-[2-(3-methylimidazol-4-yl)ethynyl]-1H-pyrrolo[2,3-b]pyridin-5-yl]pyridine-2-carboxamide] | 0.0001 to 10 µM | –
17 | CC(C)(NC(=O)c1cccc(-c2cnc3[nH]c(C4=CCN(C(=O)C5CC5)C4)cc3c2)n1)C(N)=O [Compound P-0179, N-(2-amino-1,1-dimethyl-2-oxo-ethyl)-6-[2-[1-(cyclopropanecarbonyl)-2,5-dihydropyrrol-3-yl]-1H-pyrrolo[2,3-b]pyridin-5-yl]pyridine-2-carboxamide] | 0.0001 to 10 µM | –
